US10059713B2 (Takeda Pharmaceutical Company Limited, priority 2014, dated 2018)

Molecular target: human GPR43 (Homo sapiens (Human), UniProt O15552)
Assay: Ca-Flux functional assay: determination of agonist/positive allosteric modulator (PAM) activity
Type: cell-based
Conditions: CHO-K1 Gα16 cells stably expressing human GPR43; compound added with EC20 sodium acetate; intracellular Ca2+ by FLIPR; does not distinguish agonist from PAM
In short: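 Agonist or PAM activity read as intracellular Ca2+ rise by FLIPR after adding compound plus EC20 acetate, acetate EC20 set from a prior curve. Cells: CHO-K1 Gα16 with stable human GPR43. EC50 from ten-point half-log curves starting 10 μM.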

human GPR43, sequence (O15552 whole entry): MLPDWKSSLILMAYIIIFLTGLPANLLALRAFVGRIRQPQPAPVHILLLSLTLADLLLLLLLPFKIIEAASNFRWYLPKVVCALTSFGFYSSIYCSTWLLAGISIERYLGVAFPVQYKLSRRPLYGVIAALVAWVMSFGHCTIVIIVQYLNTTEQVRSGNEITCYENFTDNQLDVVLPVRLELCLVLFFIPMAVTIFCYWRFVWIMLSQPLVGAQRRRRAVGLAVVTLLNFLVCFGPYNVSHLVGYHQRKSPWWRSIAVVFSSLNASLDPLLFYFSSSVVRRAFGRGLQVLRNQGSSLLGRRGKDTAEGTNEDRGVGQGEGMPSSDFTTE

Row | Compound | EC50 [µM]
1 | Cc1nc(N2CCO[C@H](C(F)(F)F)C2)c2[nH]c(N)c(S(=O)(=O)c3cccc(F)c3F)c2n1 [Example 285, 7-(2,3-difluorobenzenesulfonyl)-2-methyl-4-[(2S)-2-(trifluoromethyl)morpholin-4-yl]-5H-pyrrolo[3,2-d]pyrimidin-6-amine] | 0.002
2 | Nc1[nH]c2c(C3CCCCC3)ncnc2c1S(=O)(=O)c1cccc(F)c1 [Example 39, 4-cyclohexyl-7-[(3-fluorobenzene)sulfonyl]-5H-pyrrolo[3,2-d]pyrimidin-6-amine] | 0.08
3 | Nc1[nH]c2c(N3CCOC4(CCCC4)C3)ncnc2c1S(=O)(=O)c1ccccc1 [Example 102, 7-(benzenesulfonyl)-4-{6-oxa-9-azaspiro[4.5]decan-9-yl}-5H-pyrrolo[3,2-d]pyrimidin-6-amine] | 0.018
4 | COc1ccc(S(=O)(=O)c2c(N)[nH]c3c(N4CCO[C@@H](C(F)(F)F)C4)nc(C)nc23)c(F)c1 [Example 293, 7-(2-fluoro-4-methoxybenzenesulfonyl)-2-methyl-4-[(2R)-2-(trifluoromethyl)morpholin-4-yl]-5H-pyrrolo[3,2-d]pyrimidin-6-amine] | 0.002
5 | CCN(Cc1ccco1)c1ncnc2c(S(=O)(=O)c3ccccc3)c(N)[nH]c12 [Example 62, 7-(benzenesulfonyl)-4-N-ethyl-4-N-(furan-2-ylmethyl)-5H-pyrrolo[3,2-d]pyrimidine-4,6-diamine] | 0.091
6 | CCC1CN(c2ncnc3c(S(=O)(=O)c4ccccc4)c(N)[nH]c23)CCS1 (stereo not shown) [Example 196, 7-(benzenesulfonyl)-4-(2-ethylthiomorpholin-4-yl)-5H-pyrrolo[3,2-d]pyrimidin-6-amine] | 0.01
7 | Cc1nc(N2C[C@@H](C)O[C@H](C)C2)c2[nH]c(N)c(S(=O)(=O)c3ccccc3F)c2n1 [Example 203, 4-[(2R,6R)-2,6-dimethylmorpholin-4-yl]-7-(2-fluorobenzenesulfonyl)-2-methyl-5H-pyrrolo[3,2-d]pyrimidin-6-amine] | 0.011
8 | COCC1CN(c2ncnc3c(S(=O)(=O)c4ccccc4)c(N)[nH]c23)CCO1 (stereo not shown) [Example 81, 7-(benzenesulfonyl)-4-[2-(methoxymethyl)morpholin-4-yl]-5H-pyrrolo[3,2-d]pyrimidin-6-amine] | 1.21
9 | COc1ccc(S(=O)(=O)c2c(N)[nH]c3c(C4=CCCCC4)ncnc23)cn1 [Example 43, 4-(cyclohex-1-en-1-yl)-7-(6-methoxypyridine-3-sulfonyl)-5H-pyrrolo[3,2-d]pyrimidin-6-amine] | 0.078
10 | COc1ccc(S(=O)(=O)c2c(N)[nH]c3c(C4CCCCC4)ncnc23)cc1 [Example 5, 4-cyclohexyl-7-[(4-methoxybenzene)sulfonyl]-5H-pyrrolo[3,2-d]pyrimidin-6-amine] | 0.08
11 | CC1(C)CN(c2nncc3c(S(=O)(=O)c4ccccc4F)c(N)[nH]c23)CCO1 [Example 234, 7-(2,2-dimethylmorpholin-4-yl)-3-(2-fluorobenzenesulfonyl)-1H-pyrrolo[2,3-d]pyridazin-2-amine] | 0.069
12 | Cc1ccc(S(=O)(=O)c2c(N)[nH]c3c(N4CCOC(C)C4)ncnc23)c(F)c1 (stereo not shown) [Example 146, 7-(2-fluoro-4-methylbenzenesulfonyl)-4-(2-methylmorpholin-4-yl)-5H-pyrrolo[3,2-d]pyrimidin-6-amine] | 0.009
13 | CN(CC1CCCCO1)c1ncnc2c(S(=O)(=O)c3ccccc3)c(N)[nH]c12 (stereo not shown) [Example 91, 7-(benzenesulfonyl)-4-N-methyl-4-N-(oxan-2-ylmethyl)-5H-pyrrolo[3,2-d]pyrimidine diamine] | 1.4
14 | Nc1[nH]c2c(C3=CCCCC3)ncnc2c1S(=O)(=O)C1CCOC1 (stereo not shown) [Example 78, 4-(cyclohex-1-en-1-yl)-7-(oxolane-3-sulfonyl)-5H-pyrrolo[3,2-d]pyrimidin-6-amine] | 2.34
15 | Cc1nc(N2CCO[C@@H](C)C2)c2[nH]c(N)c(S(=O)(=O)c3ccccc3Cl)c2n1 [Example 261, 7-(2-chlorobenzenesulfonyl)-2-methyl-4-[(2S)-2-methylmorpholin-4-yl]-5H-pyrrolo[3,2-d]pyrimidin-6-amine] | 0.014
16 | COc1ccc(S(=O)(=O)c2c(N)[nH]c3c(-c4ccccc4)ncnc23)cc1 [Example 76, 7-(4-methoxybenzenesulfonyl)-4-phenyl-5H-pyrrolo[3,2-d]pyrimidin-6-amine] | 0.135
17 | C[C@@H]1CN(c2ncnc3c(S(=O)(=O)c4ccccc4)c(N)[nH]c23)C[C@@H](C)O1 [Example 87, 7-(benzenesulfonyl)-4-[(2R,6R)-2,6-dimethylmorpholin-4-yl]-5H-pyrrolo[3,2-d]pyrimidin-6-amine] | 0.034
18 | Cc1nc(OC(C)C)c2[nH]c(N)c(S(=O)(=O)c3ccccc3F)c2n1 [Example 272, 7-(2-fluorobenzenesulfonyl)-2-methyl-4-(propan-2-yloxy)-5H-pyrrolo[3,2-d]pyrimidin-6-amine] | 0.034
19 | Cc1ccc(S(=O)(=O)c2c(N)[nH]c3c(C4CCCCC4)ncnc23)cc1 [Example 45, 4-cyclohexyl-7-[(4-methylbenzene)sulfonyl]-5H-pyrrolo[3,2-d]pyrimidin-6-amine] | 0.084
20 | Nc1[nH]c2c(N3CCC(F)(F)C3)ncnc2c1S(=O)(=O)c1ccccc1 [Example 29, 7-(benzenesulfonyl)-4-(3,3-difluoropyrrolidin-1-yl)-5H-pyrrolo[3,2-d]pyrimidin-6-amine] | 0.399
21 | Nc1[nH]c2c(C3=CCCCC3)ncnc2c1S(=O)(=O)c1cccc(F)c1 [Example 37, 4-(cyclohex-1-en-1-yl)-7-[(3-fluorobenzene)sulfonyl]-5H-pyrrolo[3,2-d]pyrimidin-6-amine] | 0.08
22 | CC1(C)CN(c2ncnc3c(S(=O)(=O)c4ccccc4)c(N)[nH]c23)CCO1 [Example 84, 7-(benzenesulfonyl)-4-(2,2-dimethylmorpholin-4-yl)-5H-pyrrolo[3,2-d]pyrimidin-6-amine] | 0.029
23 | CC1CC1COc1ncnc2c(S(=O)(=O)c3ccccc3)c(N)[nH]c12 (stereo not shown) [Example 172, 7-(benzenesulfonyl)-4-[(2-methylcyclopropyl)methoxy]-5H-pyrrolo[3,2-d]pyrimidin-6-amine] | 0.078

The next lines start with the values.

Row | EC50 [µM] | Compound
24 | 0.002 | Nc1[nH]c2c(N3CCOC(C(F)(F)F)C3)ncnc2c1S(=O)(=O)c1ccccc1F (stereo not shown) [Example 302, 7-(2-fluorobenzenesulfonyl)-4-[2-(trifluoromethyl)morpholin-4-yl]-5H-pyrrolo[3,2-d]pyrimidin-6-amine]
25 | 2.41 | Nc1[nH]c2c(-c3ccncc3)ncnc2c1S(=O)(=O)c1ccccc1 [Example 66, 7-(benzenesulfonyl)-4-(pyridin-4-yl)-5H-pyrrolo[3,2-d]pyrimidin-6-amine]
26 | 0.209 | Nc1[nH]c2c(N3CCCCCC3)ncnc2c1S(=O)(=O)c1ccccc1 [Example 48, 4-(azepan-1-yl)-7-(benzenesulfonyl)-5H-pyrrolo[3,2-d]pyrimidin-6-amine]
27 | 0.043 | Cc1nc(N2CCOC(C)C2)c2[nH]c(N)c(S(=O)(=O)c3cccc(F)c3)c2n1 (stereo not shown) [Example 180, 7-(3-fluorobenzenesulfonyl)-2-methyl-4-(2-methylmorpholin-4-yl)-5H-pyrrolo[3,2-d]pyrimidin-6-amine]
28 | 0.002 | COc1ccc(S(=O)(=O)c2c(N)[nH]c3c(N4CCOC(C)(C)C4)nc(C)nc23)c(F)c1 [Example 241, 4-(2,2-dimethylmorpholin-4-yl)-7-(2-fluoro-4-methoxybenzenesulfonyl)-2-methyl-5H-pyrrolo[3,2-d]pyrimidin-6-amine]
29 | 0.141 | C[C@@H](Oc1ncnc2c(S(=O)(=O)c3ccccc3)c(N)[nH]c12)c1ccccn1 [Example 162, 7-(benzenesulfonyl)-4-[(1R)-1-(pyridin-2-yl)ethoxy]-5H-pyrrolo[3,2-d]pyrimidin-6-amine]
30 | 3.17 | Nc1[nH]c2c(-c3cccnc3)ncnc2c1S(=O)(=O)c1ccccc1 [Example 67, 7-(benzenesulfonyl)-4-(pyridin-3-yl)-5H-pyrrolo[3,2-d]pyrimidin-6-amine]
31 | 0.002 | Cc1nc(N2CCO[C@@H](C(F)(F)F)C2)c2[nH]c(N)c(S(=O)(=O)c3ccc(Cl)cc3F)c2n1 [Example 297, 7-(4-chloro-2-fluorobenzenesulfonyl)-2-methyl-4-[(2R)-2-(trifluoromethyl)morpholin-4-yl]-5H-pyrrolo[3,2-d]pyrimidin-6-amine]
32 | 0.019 | CC1CN(c2ncnc3c(S(=O)(=O)c4ccccc4)c(N)[nH]c23)C(C)CO1 (stereo not shown) [Example 85, 7-(benzenesulfonyl)-4-(2,5-dimethylmorpholin-4-yl)-5H-pyrrolo[3,2-d]pyrimidin-6-amine]
33 | 0.018 | CC1(C)CCCN1c1ncnc2c(S(=O)(=O)c3ccccc3)c(N)[nH]c12 [Example 56, 7-(benzenesulfonyl)-4-(2,2-dimethylpyrrolidin-1-yl)-5H-pyrrolo[3,2-d]pyrimidin-6-amine]
34 | 0.018 | Cc1nc(N2C[C@@H](C)O[C@@H](C)C2)c2[nH]c(N)c(S(=O)(=O)c3cccc(F)c3)c2n1 [Example 179, 4-[(2R,6S)-2,6-dimethylmorpholin-4-yl]-7-(3-fluorobenzenesulfonyl)-2-methyl-5H-pyrrolo[3,2-d]pyrimidin-6-amine]
35 | 2.58 | COc1ccc(N(C)S(=O)(=O)c2c(N)[nH]c3c(C4=CCCCC4)ncnc23)cc1 [Example 14, 6-amino-4-(cyclohex-1-en-1-yl)-N-(4-methoxyphenyl)-N-methyl-5H-pyrrolo[3,2-d]pyrimidine-7-sulfonamide]
36 | 0.089 | Nc1[nH]c2c(C3CCCCC3)ncnc2c1S(=O)(=O)c1ccc(F)cc1 [Example 27, 4-cyclohexyl-7-[(4-fluorobenzene)sulfonyl]-5H-pyrrolo[3,2-d]pyrimidin-6-amine]
37 | 0.002 | Cc1nc(N2CCO[C@@H](C)C2)c2[nH]c(N)c(S(=O)(=O)c3ccccc3F)c2n1 [Example 218, 7-(2-fluorobenzenesulfonyl)-2-methyl-4-[(2S)-2-methylmorpholin-4-yl]-5H-pyrrolo[3,2-d]pyrimidin-6-amine]
